{
  "source": "paper PMC12080252",
  "about": "“Daphnia magna as an Alternative Model for (Simultaneous) Bioaccumulation and Chronic Toxicity Assessment—Controlled Exposure Study Indicates High Hazard of Heterocyclic PAHs” (Environmental Science & Technology, 2025)",
  "key": {"D. magna [1]": {"test_system": "D. magna", "conditions": "Table S1; footnote not given; cited from earlier work"}, "Daphnia magna": {"test_system": "Daphnia magna", "type": "in vivo", "conditions": "for % inhibition, avr.: average of vessels; for #dead offspring per mother / #live offspring per mother: per vessel; for appearance of mother: vessel 3; for body burden at the end of the depuration phase: 12-day depuration; for log BAF*L5%: 21 days of exposure, assuming steady-state; for % reproductive inhibition: Fig. S10; for body burden: after 21-day exposure; for removed fraction of accumulated body burden: after 12 days of depuration", "method": "To maximize data output, we combined chronic toxicity and bioaccumulation tests in an integrated approach where the chronic toxicity test also served as an uptake phase followed by a depuration/recovery phase (Table S3). This simultaneous bioaccumulation/chronic toxicity test was performed for BNT and DNF. Of the 10 replicates per exposure level, five animals were sampled on day 21 to measure accumulated chemical concentrations and wet weights. The remaining five were transferred to clean media without test chemicals for a 12-day depuration phase under conditions identical with the uptake phase except for the absence of test chemicals. Juvenile counts were recorded daily. At the end of the depuration period, five Daphnia were collected, weighed, and analyzed for body burden (i.e., concentration of test chemical per unit of body weight) using the extraction procedure described in Section 2.7.\nFor quantification of body burdens, 5 daphnids were thawed, homogenized in 5 mL Milli-Q water (IKA T-25 digital Ultra-TURRAX) and extracted twice with 2 mL of hexane. The extracts were combined, dried with Na2SO4, concentrated under a nitrogen stream, and spiked with internal standard."}, "D. magna [2]": {"test_system": "D. magna", "conditions": "cited from earlier work"}, "[3]": {"conditions": "after 11.96 µg/L, depuration phase day 1"}, "[4]": {"conditions": "after 11.96 µg/L, depuration phase day 9"}, "[5]": {"conditions": "after DNF 1.43 µg/L exposure, 12-day depuration phase"}},
  "note": "“And” between values parts separate entries of the source, which are not always exact repeats. Equal entries are not always repeated. Where two headings read alike, the source gives them in different places.",
  "data": [
    {"molecule": "c1ccc2c(c1)ccc1[nH]c3ccccc3c12", "note": "[BCRB, 7H-benzo[c]carbazole]", "values": [
      {"measurement": "lowest PNEC*", "setting": "D. magna [1]", "result": 0.017, "unit": "µg/L"}
    ]},
    {"molecule": "c1ccc2c(c1)ccc1sc3ccccc3c12", "note": "[BNT, benzo[b]naphtho[1,2-d]thiophene]", "values": [
      {"measurement": "%offspring mortality", "setting": "Daphnia magna; 11.96 µg/L, 21-day exposure", "result": 28.01, "unit": "%"},
      {"measurement": "#total live offspring", "setting": "Daphnia magna; 11.96 µg/L, all vessels, exposure day 9", "result": 32},
      {"measurement": "#total live offspring", "setting": "Daphnia magna; 11.96 µg/L, all vessels, exposure day 12", "result": 46},
      {"measurement": "#total live offspring", "setting": "Daphnia magna; 11.96 µg/L, all vessels, exposure day 13", "result": 42},
      {"measurement": "#total live offspring", "setting": "Daphnia magna; 11.96 µg/L, all vessels, exposure day 14", "result": 15},
      {"measurement": "#total live offspring", "setting": "Daphnia magna; 11.96 µg/L, all vessels, exposure day 15", "result": 0},
      {"measurement": "#total live offspring", "setting": "Daphnia magna; 11.96 µg/L, all vessels, exposure day 16", "result": 77},
      {"measurement": "#total live offspring", "setting": "Daphnia magna; 11.96 µg/L, all vessels, exposure day 19", "result": 56},
      {"measurement": "#total live offspring", "setting": "Daphnia magna; 11.96 µg/L, all vessels, exposure day 20", "result": 46},
      {"measurement": "#total live offspring", "setting": "Daphnia magna; 11.96 µg/L, all vessels, exposure day 21", "result": 20},
      {"measurement": "#total live offspring", "setting": "Daphnia magna; 11.96 µg/L, all vessels, whole 21-day exposure", "result": 329},
      {"measurement": "average increase of live offspring", "setting": "Daphnia magna; 11.96 µg/L, cumulative, exposure day 9", "result": 3.2},
      {"measurement": "average increase of live offspring", "setting": "Daphnia magna; 11.96 µg/L, cumulative, exposure day 12", "result": 8},
      {"measurement": "average increase of live offspring", "setting": "Daphnia magna; 11.96 µg/L, cumulative, exposure day 13", "result": 12},
      {"measurement": "average increase of live offspring", "setting": "Daphnia magna; 11.96 µg/L, cumulative, exposure day 14", "result": 14},
      {"measurement": "average increase of live offspring", "setting": "Daphnia magna; 11.96 µg/L, cumulative, exposure day 15", "result": 14},
      {"measurement": "average increase of live offspring", "setting": "Daphnia magna; 11.96 µg/L, cumulative, exposure day 16", "result": 23},
      {"measurement": "average increase of live offspring", "setting": "Daphnia magna; 11.96 µg/L, cumulative, exposure day 19", "result": 29},
      {"measurement": "average increase of live offspring", "setting": "Daphnia magna; 11.96 µg/L, cumulative, exposure day 20", "result": 34},
      {"measurement": "average increase of live offspring", "setting": "Daphnia magna; 11.96 µg/L, cumulative, exposure day 21", "result": 36},
      {"measurement": "% inhibition, avr.", "setting": "Daphnia magna; 11.96 µg/L, live offspring, 21-day exposure", "result": 49.3, "unit": "%"},
      {"measurement": "#average live offspring", "setting": "Daphnia magna; 11.96 µg/L, per mother, 21-day exposure", "result": 36},
      {"measurement": "#dead offspring per mother", "setting": "Daphnia magna; 11.96 µg/L, exposure day 15", "result": 0},
      {"measurement": "#live offspring per mother", "setting": "Daphnia magna; 11.96 µg/L, exposure day 15", "result": 0},
      {"measurement": "appearance of mother", "setting": "Daphnia magna; 11.96 µg/L, exposure day 5", "result": "very small/pale"},
      {"measurement": "appearance of mother", "setting": "Daphnia magna; 11.96 µg/L, exposure day 7", "result": "very small"},
      {"measurement": "status of mother", "setting": "Daphnia magna; 11.96 µg/L, vessel 4, exposure day 13", "result": "dead"},
      {"measurement": "body burden at the end of the depuration phase", "setting": "Daphnia magna", "result": "below the LOQ"},
      {"measurement": "log BAF*L5%", "setting": "Daphnia magna", "result": "4.58 ± 0.05 and 4.58"},
      {"measurement": "% reproductive inhibition", "setting": "Daphnia magna; BNT 4.3 µg/L, entire test (days 1-33)", "result": 20, "unit": "%"},
      {"measurement": "% reproductive inhibition", "setting": "Daphnia magna; BNT 4.3 µg/L, only depuration phase (days 21-33)", "result": 6, "unit": "%"},
      {"measurement": "% reproductive inhibition", "setting": "Daphnia magna; BNT 4.3 µg/L, only uptake phase (days 0-21)", "result": 36, "unit": "%"},
      {"measurement": "% inhibition, avr.", "setting": "Daphnia magna; BNT 4.72 µg/L, 21-day exposure", "result": 35.5, "unit": "%"},
      {"measurement": "% reproductive inhibition", "setting": "Daphnia magna; BNT 12 µg/L, entire test (days 1-33)", "result": 32, "unit": "%"},
      {"measurement": "% reproductive inhibition", "setting": "Daphnia magna; BNT 12 µg/L, only depuration phase (days 21-33)", "result": 15, "unit": "%"},
      {"measurement": "% reproductive inhibition", "setting": "Daphnia magna; BNT 12 µg/L, only uptake phase (days 0-21)", "result": 49, "unit": "%"},
      {"measurement": "%offspring mortality", "setting": "Daphnia magna; after 11.96 µg/L, 12-day depuration phase", "result": 3.94, "unit": "%"},
      {"measurement": "#total live offspring", "setting": "Daphnia magna; after 11.96 µg/L, all vessels, depuration phase day 1", "result": 0},
      {"measurement": "#total live offspring", "setting": "Daphnia magna; after 11.96 µg/L, all vessels, depuration phase day 2", "result": 61},
      {"measurement": "#total live offspring", "setting": "Daphnia magna; after 11.96 µg/L, all vessels, depuration phase day 5", "result": 35},
      {"measurement": "#total live offspring", "setting": "Daphnia magna; after 11.96 µg/L, all vessels, depuration phase day 6", "result": 63},
      {"measurement": "#total live offspring", "setting": "Daphnia magna; after 11.96 µg/L, all vessels, depuration phase day 7", "result": 37},
      {"measurement": "#total live offspring", "setting": "Daphnia magna; after 11.96 µg/L, all vessels, depuration phase day 8", "result": 1},
      {"measurement": "#total live offspring", "setting": "Daphnia magna; after 11.96 µg/L, all vessels, depuration phase day 9", "result": 0},
      {"measurement": "#total live offspring", "setting": "Daphnia magna; after 11.96 µg/L, all vessels, depuration phase day 12", "result": 120},
      {"measurement": "#total live offspring", "setting": "Daphnia magna; after 11.96 µg/L, all vessels, whole 12-day depuration phase", "result": 317},
      {"measurement": "average increase of live offspring", "setting": "Daphnia magna; after 11.96 µg/L, cumulative since exposure start, depuration phase day 1", "result": 36},
      {"measurement": "average increase of live offspring", "setting": "Daphnia magna; after 11.96 µg/L, cumulative since exposure start, depuration phase day 2", "result": 48},
      {"measurement": "average increase of live offspring", "setting": "Daphnia magna; after 11.96 µg/L, cumulative since exposure start, depuration phase day 5", "result": 55},
      {"measurement": "average increase of live offspring", "setting": "Daphnia magna; after 11.96 µg/L, cumulative since exposure start, depuration phase day 6", "result": 68},
      {"measurement": "average increase of live offspring", "setting": "Daphnia magna; after 11.96 µg/L, cumulative since exposure start, depuration phase day 7", "result": 75},
      {"measurement": "average increase of live offspring", "setting": "Daphnia magna; after 11.96 µg/L, cumulative since exposure start, depuration phase day 8", "result": 76},
      {"measurement": "average increase of live offspring", "setting": "Daphnia magna; after 11.96 µg/L, cumulative since exposure start, depuration phase day 9", "result": 76},
      {"measurement": "average increase of live offspring", "setting": "Daphnia magna; after 11.96 µg/L, cumulative since exposure start, depuration phase day 12", "result": 100},
      {"measurement": "#average live offspring", "setting": "Daphnia magna; after 11.96 µg/L, per mother, 12-day depuration phase", "result": 63},
      {"measurement": "#dead offspring per mother", "setting": "Daphnia magna; [3]", "result": 0},
      {"measurement": "#live offspring per mother", "setting": "Daphnia magna; [3]", "result": 0},
      {"measurement": "#dead offspring per mother", "setting": "Daphnia magna; after 11.96 µg/L, depuration phase day 8", "result": 0},
      {"measurement": "#dead offspring per mother", "setting": "Daphnia magna; [4]", "result": 0},
      {"measurement": "#live offspring per mother", "setting": "Daphnia magna; [4]", "result": 0},
      {"measurement": "body burden", "setting": "Daphnia magna; CW = 4.7 μg L^–1", "result": 50, "unit": "mg kg^–1"},
      {"measurement": "body burden", "setting": "Daphnia magna; CW = 12 μg L^–1", "result": 150, "unit": "mg kg^–1 wet weight"},
      {"measurement": "removed fraction of accumulated body burden", "setting": "Daphnia magna", "result": "≥ 99.98", "unit": "%"},
      {"measurement": "effect on D. magna immobilization", "setting": "D. magna [2]; acute test, at water solubility", "result": 35, "unit": "%"}
    ]},
    {"molecule": "c1ccc2c(c1)ccc1oc3ccc4ccccc4c3c12", "note": "[DNF, dinaphtho[2,1-b:1′,2′-d]furan]", "values": [
      {"measurement": "body burden at the end of the depuration phase", "setting": "Daphnia magna", "result": "below the LOQ"},
      {"measurement": "log BAF*L5%", "setting": "Daphnia magna", "result": 4.20},
      {"measurement": "% reproductive inhibition", "setting": "Daphnia magna; DNF 1.43 µg/L, entire test (days 1-33)", "result": 35, "unit": "%"},
      {"measurement": "% reproductive inhibition", "setting": "Daphnia magna; DNF 1.43 µg/L, only depuration phase (days 21-33)", "result": 14, "unit": "%"},
      {"measurement": "% reproductive inhibition", "setting": "Daphnia magna; DNF 1.43 µg/L, only uptake phase (days 0-21)", "result": 57, "unit": "%"},
      {"measurement": "%offspring mortality", "setting": "Daphnia magna; DNF 1.43 µg/L, 21-day exposure", "result": 42.26, "unit": "%"},
      {"measurement": "% inhibition, avr.", "setting": "Daphnia magna; DNF 1.43 µg/L, 21-day exposure", "result": 57.5, "unit": "%"},
      {"measurement": "#average live offspring", "setting": "Daphnia magna; DNF 1.43 µg/L, 21-day exposure, per surviving mother", "result": 31},
      {"measurement": "#total live offspring", "setting": "Daphnia magna; DNF 1.43 µg/L, 21-day exposure, sum of all vessels", "result": 276},
      {"measurement": "body burden", "setting": "Daphnia magna; CW = 1.4 μg L^–1", "result": 6.9, "unit": "mg kg^–1"},
      {"measurement": "removed fraction of accumulated body burden", "setting": "Daphnia magna", "result": "at least 99.57%"},
      {"measurement": "#average live offspring (depuration phase)", "setting": "Daphnia magna; [5]", "result": 64},
      {"measurement": "%offspring mortality (depuration phase)", "setting": "Daphnia magna; [5]", "result": 3.38, "unit": "%"},
      {"measurement": "#total live offspring (depuration phase)", "setting": "Daphnia magna; after DNF 1.43 µg/L exposure, 12-day depuration phase, sum of all vessels", "result": 257},
      {"measurement": "observation of mother animal (depuration phase)", "setting": "Daphnia magna; after DNF 1.43 µg/L exposure, vessel 8, depuration day 3", "result": "dead"},
      {"measurement": "acute effects on D. magna immobilization", "setting": "D. magna [2]; controlled exposure conditions", "result": "no effects were observed"}
    ]}
  ]
}
